Source: publication PMC3079562 (Nature chemical biology, 2011)

Molecular target: T1, NosL (Streptomyces actuosus, UniProt C6FX51)
T1 sequence (C6FX51 1-400): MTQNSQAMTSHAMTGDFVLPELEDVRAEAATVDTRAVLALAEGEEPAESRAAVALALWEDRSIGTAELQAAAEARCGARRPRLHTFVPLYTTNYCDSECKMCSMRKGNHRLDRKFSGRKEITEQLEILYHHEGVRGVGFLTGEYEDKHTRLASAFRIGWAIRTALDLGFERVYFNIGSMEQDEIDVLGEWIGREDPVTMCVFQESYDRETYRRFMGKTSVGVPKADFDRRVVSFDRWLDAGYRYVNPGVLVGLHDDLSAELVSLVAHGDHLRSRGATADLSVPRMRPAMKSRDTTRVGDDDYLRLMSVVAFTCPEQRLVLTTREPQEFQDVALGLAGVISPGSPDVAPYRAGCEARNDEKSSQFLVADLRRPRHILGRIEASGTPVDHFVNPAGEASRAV
Conditions: with L-Trp; otherwise same

SMILES: C[S+](CC[C@H](N)C(=O)O)C[C@H]1O[C@@H](n2cnc3c(N)ncnc32)[C@H](O)[C@@H]1O (stereo partly shown) [S-AdoMet]
- HPLC-MS of product 5'-deoxyadenosine: S-AdoMet consumption was independent of L-Trp, but significantly enhanced by adding L-Trp
